Test [1] has as its target soluble human BACE1 catalytic domain (Homo sapiens (Human), UniProt P56817). As to the kind of experiment: BACE1 HTRF FRET Assay. In kind it is biochemical. As to conditions: Ki calculated from IC50 using the Cheng-Prusoff equation. The source says:
A homogeneous time-resolved FRET assay can be used to determine IC50 values for inhibitors of the soluble human BACE1 catalytic domain. This assay monitors the increase of 620 nm fluorescence that resulted from BACE1 cleavage of an APPswedish APP^swe mutant peptide FRET substrate (QSY7-[…]-Europium-amide). This substrate contains an N-terminal QSY7 moiety that serves as a quencher of the C-terminal Europium fluorophore (620 nm Em). In the absence of enzyme activity, 620 nm fluorescence is low in the assay and increased linearly over 3 hours in the presence of uninhibited BACE1 enzyme Inhibition of BACE1 cleavage of the QSY7-APP^swe-Eu substrate by inhibitors is manifested as a suppression of 620 nm fluorescence.
Reactions are initiated by addition of 10 μl of 600 nM QSY7-APP^swe-Eu substrate (200 nM final) to give a final reaction volume of 30 μl in a 384 well Nunc HTRF plate. The reactions are incubated at 30° C. for 1.5 hours. The 620 nm fluorescence is then read on a Rubystar HTRF plate reader (BMG Labtechnologies) using a 50 millisecond delay followed by a 400 millisecond acquisition time window Inhibitor IC50 values are derived from non-linear regression analysis of concentration response curves.

Test [2] addresses purified human autoBACE-2 (Homo sapiens (Human), UniProt Q9Y5Z0). In words: BACE-2 Assay (BACE-HTRF assay). In kind it is biochemical. As to conditions: Ki calculated from IC50 using the Cheng-Prusoff equation; read-out: BACE2 Ki. How it is done:
Inhibitor IC50s at purified human autoBACE-2 are determined in a time-resolved endpoint proteolysis assay that measures hydrolysis of the QSY7-[…]-Eu-amide FRET peptide substrate (BACE-HTRF assay). BACE-mediated hydrolysis of this peptide results in an increase in relative fluorescence (RFU) at 620 nm after excitation with 320 nm light Inhibitor compounds, prepared at 3× the desired final concentration in 1×BACE assay buffer (20 mM sodium acetate pH 5.0, 10% glycerol, 0.1% Brij-35) supplemented with 7.5% DMSO are pre-incubated with an equal volume of autoBACE-2 enzyme diluted in 1×BACE assay buffer (final enzyme concentration 1 nM) in black 384-well NUNC plates for 30 minutes at 30° C. […] DMSO is present at 5% final concentration in the assay. Following laser excitation of sample wells at 320 nm, the fluorescence signal at 620 nm is collected for 400 ms following a 50 μs delay on a RUBYstar HTRF plate reader (BMG Labtechnologies). Raw RFU data is normalized to maximum (1.0 nM BACE/DMSO) and minimum (no enzyme/DMSO) RFU values. IC50s are determined by nonlinear regression analysis (sigmoidal dose response, variable slope) of percent inhibition data with minimum and maximum values set to 0 and 100 percent respectively. Similar IC50s are obtained when using raw RFU data. The Ki values are calculated from the IC50 using the Cheng-Prusoff equation.

pKi: −log10 of the molar value.

Chain of purified human autoBACE-2 (Q9Y5Z0 63-473 limits assumed): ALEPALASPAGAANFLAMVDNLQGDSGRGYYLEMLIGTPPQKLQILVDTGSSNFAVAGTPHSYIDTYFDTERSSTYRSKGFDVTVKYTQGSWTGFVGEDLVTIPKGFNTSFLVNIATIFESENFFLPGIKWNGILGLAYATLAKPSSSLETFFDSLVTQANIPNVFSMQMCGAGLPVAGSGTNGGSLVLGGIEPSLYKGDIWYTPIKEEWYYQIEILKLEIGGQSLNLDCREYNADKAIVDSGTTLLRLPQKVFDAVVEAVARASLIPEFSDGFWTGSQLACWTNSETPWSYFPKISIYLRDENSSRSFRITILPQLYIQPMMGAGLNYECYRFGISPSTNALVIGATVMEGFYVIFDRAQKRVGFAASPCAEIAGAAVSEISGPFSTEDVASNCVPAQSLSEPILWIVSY
Chain of soluble human BACE1 catalytic domain (P56817 75-416): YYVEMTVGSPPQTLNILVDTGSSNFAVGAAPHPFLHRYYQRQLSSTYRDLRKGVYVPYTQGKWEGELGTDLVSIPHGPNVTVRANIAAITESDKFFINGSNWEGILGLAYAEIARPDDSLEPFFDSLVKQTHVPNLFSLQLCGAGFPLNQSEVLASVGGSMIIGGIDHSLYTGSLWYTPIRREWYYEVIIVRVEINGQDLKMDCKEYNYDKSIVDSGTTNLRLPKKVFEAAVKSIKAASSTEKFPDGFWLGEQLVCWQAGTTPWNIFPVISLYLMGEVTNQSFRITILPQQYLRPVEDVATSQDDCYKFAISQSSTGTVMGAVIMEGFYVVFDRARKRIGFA

Usually pKi stands for the Ki on a negative log10 scale, so that one unit is a factor of ten. `CCCCOc1ccc(-c2nnc(-c3cc(Cl)c([C@]4(C)CS(=O)(=O)N(C)C(=N)N4)s3)o2)cc1` [Example 61]: the pKi is 7.00 in test [1] and 6.59 in test [2].

As to `CN1C(=N)N[C@](C)(c2cc(-c3nnc(-c4ccc(Cl)cc4)o3)ccc2F)CS1(=O)=O` [Example 25], the pKi was 5.59 in test [1] and 6.23 in test [2].

With `CC1CN=C(c2ccc(-c3cc(Cl)c([C@]4(C)CS(=O)(=O)N(C)C(=N)N4)s3)[nH]2)O1` (stereo partly shown) [Example 7], the negative logarithm of the Ki (pKi) in test [1] is 7.06; in test [2], 7.46.

As to `CN1C(=N)N[C@](C)(c2sc(-c3[nH]cnc3-c3ccccc3)cc2Cl)CS1(=O)=O` [Example 4], the pKi in test [1] is 5.04; in test [2] it was 5.51.

Turning to `CN1C(=N)N[C@](C)(c2sc(-c3nnc(C4CC4)o3)cc2Cl)CS1(=O)=O` [Example 48], the negative logarithm of the Ki (pKi) is 6.05 in test [1] and 6.94 in test [2].

As to `CN1C(=N)N[C@](C)(c2sc(-c3nnc(-c4ccc(C(F)(F)F)cn4)o3)cc2Cl)CS1(=O)=O` [Example 75], the values for the pKi in test [1] and in test [2] were 6.78 and 6.52, respectively.

For the molecule `CN1C(=N)N[C@](C)(c2sc(-c3nnc(-c4cc5ccccn5n4)o3)cc2Cl)CS1(=O)=O` [Example 30], the negative-log Ki (pKi) is 6.59 in test [1] and 7.01 in test [2].

As to `CN1C(=N)N[C@](C)(c2sc(-c3nnc(-c4cnccn4)o3)cc2Cl)CS1(=O)=O` [Example 27], the pKi was 6.17 in test [1] and 6.55 in test [2].

`CN1C(=N)N[C@](C)(c2sc(-c3nnc(-c4ncco4)o3)cc2Cl)CS1(=O)=O` [Example 41]: the pKi in test [1] is 6.36; in test [2], 7.50.

For `CC(C)c1ccc(-c2nnc(-c3cc(Cl)c([C@]4(C)CS(=O)(=O)N(C)C(=N)N4)s3)o2)cc1` [Example 56], the figures for the pKi in test [1] and in test [2] were 6.45 and 6.05, respectively.

In the case of `CN1C(=N)N[C@](C)(c2cc(-c3nnc(-c4ccccc4)o3)ccc2F)CS1(=O)=O` [Example 24], the pKi in test [1] is 5.01; in test [2], 5.83.

`CN1C(=N)N[C@](C)(c2sc(-c3nnc(-c4ccccn4)o3)cc2Cl)CS1(=O)=O` [Example 21]: the results for the pKi in test [1] and in test [2] were 6.26 and 7.23, respectively.

For the molecule `CN1C(=N)N[C@](C)(c2sc(-c3nnc(-c4cscn4)o3)cc2Cl)CS1(=O)=O` [Example 37], the figures for the pKi in test [1] and in test [2] were 6.18 and 7.16, respectively.

Turning to `CN1C(=N)N[C@](C)(c2sc(-c3ccc(C4=NCCO4)[nH]3)cc2Cl)CS1(=O)=O` [Example 6], the pKi is 6.57 in test [1] and 7.16 in test [2].

Consider `CN1C(=N)N[C@](C)(c2sc(-c3cc(-c4ccccc4)on3)cc2Cl)CS1(=O)=O` [Example 12], for which the pKi was 5.93 in test [1] and 6.44 in test [2].

`CN1C(=N)N[C@](C)(c2sc(-c3cnn(-c4ccccc4)c3)cc2Cl)CS1(=O)=O` [Example 85]: the pKi in test [1] is 6.58; in test [2], 7.55.

In the case of `CN1C(=N)N[C@](C)(c2sc(-c3nnc(-c4cccnc4)o3)cc2Cl)CS1(=O)=O` [Example 29], the figures for the pKi in test [1] and in test [2] were 5.98 and 6.16, respectively.

For `CN1C(=N)N[C@](C)(c2sc(-c3nnc(-c4ccc5c(c4)C(=O)CC5)o3)cc2Cl)CS1(=O)=O` [Example 74], the pKi was 6.05 in test [1] and 5.70 in test [2].

Consider `CN1C(=N)N[C@](C)(c2sc(-c3nnc(-c4cocn4)o3)cc2Cl)CS1(=O)=O` [Example 42], for which the pKi was 6.03 in test [1] and 6.85 in test [2].

Turning to `CN1C(=N)N[C@](C)(c2sc(-c3nnc(-c4ccc5scnc5c4)o3)cc2Cl)CS1(=O)=O` [Example 73], the pKi in test [1] was 6.77; in test [2], 6.47.

`CN1C(=N)N[C@](C)(c2sc(-c3nnc(-c4ccc(F)c(F)c4)o3)cc2Cl)CS1(=O)=O` [Example 59]: the pKi in test [1] was 6.93; in test [2], 7.09.

For `CN1C(=N)N[C@](C)(c2sc(-c3nnc(-c4cnn(C)c4)o3)cc2Cl)CS1(=O)=O` [Example 45], the pKi in test [1] is 6.39; in test [2], 6.65.

In the case of `CN1C(=N)N[C@](C)(c2cc(-c3nnc(-c4cscn4)o3)ccc2F)CS1(=O)=O` [Example 51], the figures for the negative logarithm of the Ki (pKi) in test [1] and in test [2] were 5.07 and 5.81, respectively.

For the molecule `CN1C(=N)N[C@](C)(c2sc(-c3nnc(-c4ccc(N5CCCCC5)cc4)o3)cc2Cl)CS1(=O)=O` [Example 68], the pKi in test [1] is 5.27; in test [2], 5.52.

Turning to `CN1C(=N)N[C@](C)(c2sc(-c3nnc(-c4ncccn4)o3)cc2Cl)CS1(=O)=O` [Example 36], the pKi in test [1] is 6.11; in test [2], 6.98.

As to `CN1C(=N)N[C@](C)(c2cc(-c3nnc(-c4nccs4)o3)ccc2F)CS1(=O)=O` [Example 49], the pKi in test [1] was 5.40; in test [2], 6.31.

For `CN1C(=N)N[C@](C)(c2sc(-c3nnc(-c4cncnc4)o3)cc2Cl)CS1(=O)=O` [Example 39], the negative logarithm of the Ki (pKi) is 5.27 in test [1] and 5.78 in test [2].

For the molecule `CN1C(=N)N[C@](C)(c2cc(-c3nnc(-c4cocn4)o3)ccc2F)CS1(=O)=O` [Example 54], the pKi was 5.12 in test [1] and 5.77 in test [2].

As to `CN1C(=N)N[C@](C)(c2sc(-c3ccc(-c4nnco4)[nH]3)cc2Cl)CS1(=O)=O` [Example 8], the negative logarithm of the Ki (pKi) was 8.55 in test [1] and 7.96 in test [2].

Regarding `Cc1nc2cc(-c3nnc(-c4cc(Cl)c([C@]5(C)CS(=O)(=O)N(C)C(=N)N5)s4)o3)ccc2s1` [Example 72], the figures for the pKi in test [1] and in test [2] were 6.37 and 5.94, respectively.

Take `CN1C(=N)N[C@](C)(c2sc(-c3nnc(-c4ccc(Cl)cc4F)o3)cc2Cl)CS1(=O)=O` [Example 57]: the negative-log Ki (pKi) was 7.29 in test [1] and 7.78 in test [2].

For `CN1C(=N)N[C@](C)(c2sc(-c3nnc(-c4ccc(N5CCCC5=O)cc4)o3)cc2Cl)CS1(=O)=O` [Example 69], the pKi in test [1] is 5.99; in test [2] it was 5.97.

`CCCOc1ccc(-c2nnc(-c3cc(Cl)c([C@]4(C)CS(=O)(=O)N(C)C(=N)N4)s3)o2)cc1` [Example 62]: the negative-log Ki (pKi) was 7.07 in test [1] and 6.50 in test [2].

Turning to `CN1C(=N)N[C@](C)(c2sc(-c3nnc(-c4ccncn4)o3)cc2Cl)CS1(=O)=O` [Example 43], the pKi is 6.08 in test [1] and 6.52 in test [2].

With `CN1C(=N)N[C@](C)(c2sc(-c3nnc(-c4ccc(-n5cccn5)cc4)o3)cc2Cl)CS1(=O)=O` [Example 71], the pKi in test [1] was 6.81; in test [2] it was 6.74.

Take `CN1C(=N)N[C@](C)(c2sc(-c3nnc(-c4ccc(OC(F)F)cc4)o3)cc2Cl)CS1(=O)=O` [Example 79]: the figures for the pKi in test [1] and in test [2] were 7.29 and 6.88, respectively.

On to `CN1C(=N)N[C@](C)(c2sc(-c3nnc(-c4ccc(C(F)(F)F)c(F)c4)o3)cc2Cl)CS1(=O)=O` [Example 65], for which the figures for the pKi in test [1] and in test [2] were 6.81 and 6.44, respectively.

Turning to `CN1C(=N)N[C@](C)(c2sc(-c3ccc(-c4ccccc4)[nH]3)cc2Cl)CS1(=O)=O` [Example 1], the pKi in test [1] is 8.68; in test [2], 9.16.

For the molecule `COC(=O)Cc1ccc(-c2nnc(-c3cc(Cl)c([C@]4(C)CS(=O)(=O)N(C)C(=N)N4)s3)o2)cc1` [Example 80], the pKi was 6.86 in test [1] and 6.17 in test [2].

Take `CN1C(=N)N[C@](C)(c2sc(-c3nnc(-c4nccs4)o3)cc2Cl)CS1(=O)=O` [Example 32]: the pKi was 6.40 in test [1] and 7.35 in test [2].

As to `CN1C(=N)N[C@](C)(c2sc(-c3nnc(-c4ccc5[nH]cnc5c4)o3)cc2Cl)CS1(=O)=O` [Example 58], the pKi in test [1] was 6.02; in test [2], 5.89.

Take `CN1C(=N)N[C@](C)(c2sc(-c3nnc(-c4ccc(C5(C#N)COC5)cc4)o3)cc2Cl)CS1(=O)=O` [Example 66]: the negative-log Ki (pKi) in test [1] is 5.87; in test [2], 5.97.

For the molecule `CN1C(=N)N[C@](C)(c2sc(-c3ccc(-c4nnc(C5CC5)o4)[nH]3)cc2Cl)CS1(=O)=O` [Example 10], the pKi in test [1] was 7.06; in test [2], 7.95.

As to `CN1C(=N)N[C@](C)(c2sc(-c3nnc(-c4ccnn4C)o3)cc2Cl)CS1(=O)=O` [Example 47], the pKi in test [1] is 5.82; in test [2] it was 6.15.

The values are drawn from patent US9422277B2, “Tricyclic substituted thiadiazine dioxide compounds as BACE inhibitors, compositions and their use” (Merck Sharp & Dohme Corp., priority 2012, dated 2016).
